From patent US20250114367A1, “METHOD OF TREATING HAIR LOSS DISORDERS” (Sun Pharmaceutical Industries, Inc., priority 2023, published 2025)

Test system: adult subjects with moderate to severe AA
Assay: Phase III trial: Hair Satisfaction Patient Reported Outcome (SPRO)
Assay type: in vivo, human
Parameters: key to SPRO responders, treatment difference: Common Risk Difference (Mantel-Haenszel): difference in proportion of responders (satisfied or very satisfied)
Details: for SPRO Responders: No / SPRO Responders: Yes ('Very satisfied' or 'Satisfied') / SPRO Responses: 1 = Very Satisfied / SPRO Responses: 2 = Satisfied / SPRO Responses: 3 = Neither Satisfied Nor Dissatisfied / SPRO Responses: 4 = Dissatisfied / SPRO Responses: 5 = Very Dissatisfied / percentage of subjects with a ≥2 point change from baseline in SPRO / proportion of SPRO responders (very satisfied or satisfied) / percentage of SPRO responders: non-missing data; for SPRO responders, treatment difference: Common Risk Difference (Mantel-Haenszel): MI with MAR assumption
From the text: The SPRO is a single-item questionnaire answered by the subject and designed to measure how satisfied Alopecia Areata subjects are with their hair at the time of the assessment. Subjects answer questions on a scale of 1 to 5, representing “Very satisfied” to “Very dissatisfied.” Satisfaction categories 1-5 of the scale were defined as follows: 1=“Very Satisfied”; 2=“Satisfied”; 3=“Neither Satisfied nor Dissatisfied”; 4=Dissatisfied”; and 5=“Very Dissatisfied”.
The results of the SPRO was analyzed in three different ways: 1) the percentage of responders, 2) the change from baseline, and 3) the percentage of subjects achieving a ≥2.0 point change from baseline.
A Phase III trial was conducted to assess the efficacy and safety of CTP-543 in adult subjects with moderate to severe AA. Approximately 440 adult male and female subjects 18 to 65 years of age, inclusive, with moderate to severe AA participated in the study. Subjects with definitive diagnosis of AA, and at least 50% hair loss, as defined by a SALT score ≥50, who met all of the inclusion criteria and none of the exclusion criteria participated in the study.
The Screening Period lasted up to 28 days prior to initiation of study drug. […] Randomization was stratified by scalp hair loss into 1 of the following 2 categories: 1) partial scalp hair loss (SALT ≥50 and <95), 2) complete or near complete scalp hair loss (SALT ≥95).
The key secondary efficacy endpoints were the percentage of responders (defined as “satisfied” or “very satisfied”) on the Hair Satisfaction Patient Reported Outcome (SPRO) scale at Week 24, 20, 16, 12, and 8.
Additional secondary efficacy endpoints included the following: • Relative change in SALT scores from baseline at Weeks 4, 8, 12, 16, 20, and 24. • Percentage of responders (defined as “much improved” or “very much improved”) using the Clinical Global Impression of Improvement (CGI-I) at Weeks 12, 16, 20, and 24. • Percentage of responders (defined as “much improved” or “very much improved”) using the Patient Global Impression of Improvement (PGI-I) at Weeks 12, 16, 20, and 24. • Change from baseline in the Clinical Global Impression of Severity (CGI-S) at Weeks 12, 16, 20, and 24. • Change from baseline in the Patient Global Impression of Severity (PGI-S) at Weeks 12, 16, 20, and 24. • Change from baseline on the Brigham Eyebrow Tool for Alopecia (BETA) score at Weeks 12 and 24. • Change from baseline on the Brigham Eyelash Tool for Alopecia (BELA) score at Weeks 12 and 24. • Percentage of subjects achieving at least a 75% relative reduction in SALT score from baseline at Weeks 12 and 24. • Percentage of subjects achieving at least a 90% relative reduction in SALT score from baseline at Weeks 12 and 24. • Percentage of responders (defined as “satisfied” or “very satisfied”) on the SPRO scale at Weeks 12, 16, and 20. • Change from baseline in the SPRO scale at Weeks 12, 16, 20, and 24. • Percentage of subjects achieving a ≥2-point change from baseline in the SPRO scale at Weeks 12, 16, 20, and 24. • Change from baseline on the individual items of the Hair Quality Patient Reported Outcome (QPRO) scale at Weeks 12, 16, 20, and 24. • Change from baseline in the depression scale of the Hospital Anxiety and Depression Scale (HADS) at Week 24. • Change from baseline in the anxiety scale of the HADS at Week 24. • Percentage of subjects achieving an absolute SALT score of ≤20 at Week 4. • Percentage of subjects achieving an absolute SALT score of ≤10 at Week 24 […]

## [2H]C1([2H])C([C@@H](CC#N)n2cc(-c3ncnc4[nH]ccc34)cn2)C([2H])([2H])C([2H])([2H])C1([2H])[2H] [CTP-543, (R)-3-(4-(7H-pyrrolo[2,3-d]pyrimidin-4-yl)-1H-pyrazol-1-yl)-3-(cyclopentyl-2,2,3,3,4,4,5,5-d8) propanenitrile]
Week 12, 8 mg BID
  SPRO score, LS mean change from baseline: −1.6
Week 12, 12 mg BID
  SPRO score, LS mean change from baseline: −1.7
Week 16, 8 mg BID
  SPRO score, LS mean change from baseline: −1.6
Week 16, 12 mg BID
  SPRO score, LS mean change from baseline: −1.7
Week 20, 8 mg BID
  SPRO score, LS mean change from baseline: −1.5
Week 20, 12 mg BID
  SPRO score, LS mean change from baseline: −1.8
Week 24, 8 mg BID
  SPRO score, LS mean change from baseline: −1.6
  percentage of subjects with a ≥2 point change from baseline in SPRO: 52.6%
  proportion of SPRO responders (very satisfied or satisfied): 46.5%
Week 24, 8 mg BID (N = 249)
  SPRO Responders: No: 122 (53.5) n (%)
  SPRO Responders: Yes ('Very satisfied' or 'Satisfied'): 106 (46.5) n (%)
  SPRO Responses: 1 = Very Satisfied: 40 (17.5) n (%)
  SPRO Responses: 2 = Satisfied: 66 (38.9) n (%)
  SPRO Responses: 3 = Neither Satisfied Nor Dissatisfied: 34 (14.9) n (%)
  SPRO Responses: 4 = Dissatisfied: 34 (14.9) n (%)
  SPRO Responses: 5 = Very Dissatisfied: 54 (23.7) n (%)
Week 24, 8 mg BID compared to Placebo
  SPRO responders, treatment difference: Common Risk Difference (Mantel-Haenszel): 0.45
Week 24, 12 mg BID
  SPRO score, LS mean change from baseline: −1.8
  percentage of subjects with a ≥2 point change from baseline in SPRO: 61.7%
  proportion of SPRO responders (very satisfied or satisfied): 51.7
Week 24, 12 mg BID (N = 127)
  SPRO Responders: No: 58 (48.3) n (%)
  SPRO Responders: Yes ('Very satisfied' or 'Satisfied'): 62 (51.7) n (%)
  SPRO Responses: 1 = Very Satisfied: 24 (20.0) n (%)
  SPRO Responses: 2 = Satisfied: 38 (31.7) n (%)
  SPRO Responses: 3 = Neither Satisfied Nor Dissatisfied: 23 (19.2) n (%)
  SPRO Responses: 4 = Dissatisfied: 18 (15.0) n (%)
  SPRO Responses: 5 = Very Dissatisfied: 17 (14.2) n (%)
Week 24, 12 mg BID compared to Placebo
  SPRO responders, treatment difference: Common Risk Difference (Mantel-Haenszel): 0.49
Week 12, 8 mg BID
  percentage of SPRO responders: 43.2%
  percentage of subjects with a ≥2 point change from baseline in SPRO: 50.4%
Week 12, 12 mg BID
  percentage of SPRO responders: 41.0%
  percentage of subjects with a ≥2 point change from baseline in SPRO: 59.0%
Week 16, 8 mg BID
  percentage of SPRO responders: 41.0%
  percentage of subjects with a ≥2 point change from baseline in SPRO: 52.6%
Week 16, 12 mg BID
  percentage of SPRO responders: 45.1%
  percentage of subjects with a ≥2 point change from baseline in SPRO: 57.4%
Week 20, 8 mg BID
  percentage of SPRO responders: 40.1%
  percentage of subjects with a ≥2 point change from baseline in SPRO: 50.4%
Week 20, 12 mg BID
  percentage of SPRO responders: 52.5%
  percentage of subjects with a ≥2 point change from baseline in SPRO: 63.6%
